Results from patent US20230287316A1, “INTER-ORGAN PLATFORM WITH TISSUE-SPECIFIC NICHES FOR A MICROPHYSIOLOGICAL SYSTEM ON A CHIP” (THE TRUSTEES OF COLUMBIA UNIVERSITY IN THE CITY OF NEW YORK, priority 2020, published 2023).

Experiments:
[1] = system: non-metastatic TE-ES (RD-ES) bone tumor; assay: Linsitinib on non-metastatic engineered ES bone tumors (TE-ES) cultured in isolation; assay type: cell-based, human
From the text: FIGS. 31A-E show aspects of the evaluation of the dose-dependent effects of doxorubicin and linsitinib on engineered non-metastatic and metastatic ES bone tumors. […] An MTT viability assay was used to determine drug toxicity, with luminescence generated by viable cells measured at the endpoint (10^4 cells per well, mean± s.e.m., n = 3). […] Tumors are outlined by white dashes and validated using corresponding H&E stains of the identical loci. All scale bars: 250 µm.
FIGS. 32A-D show aspects of responses of human engineered bone ES tumors and cardiac tissues to linsitinib in isolated platform chambers. […] Luminescence as a function of cancer cell number and viability was measured (mean± s.e.m., n = 6 for day 3, and n = 3 for day 7 and 21).
The effects of linsitinib were studied in an experiment performed according to the 3-week treatment cycle used in the clinical trial (3 days of drug administration followed by 4 days without the drug, in 3 cycles), with luminescence signal serving as an indicator of cancer cell viability within the TE-ES.
Supernatants were collected from each individual sample across the duration of the drug treatments and were analyzed for osteoblast function (OCN, OPN) and for cytotoxicity (LDH) (mean± s.e.m., n = 3).
Two weeks following the initiation of osteogenic differentiation, aggregates of ES tumor cells were prepared as described previously, using 0.3 × 10^6 cells per aggregate. After 1 week of culture, corresponding to the end of bone tissue culture (3 weeks), the primary ES cell aggregates were placed into the engineered bone constructs (3 aggregates per construct, placed apart of each other). Tumor models were established for two different types of primary ES cells: non-metastatic (RD-ES) and metastatic (SK-N-MC). Tissue engineered RD-ES and SK-N-MC tumors were cultured in the RPMI and EMEM media, respectively, supplemented with 10% FBS and 1% penicillin/streptomycin. Bone constructs cultured without tumor cell aggregates (TE-bone) in RPMI and EMEM media were used as controls.
To assess apoptosis, paraffin embedded tissue sections were first deparaffinized with CitriSolv, rehydrated with graded series of ethanol washes, and then stained with a Click-iT® TUNEL Alexa Fluor® imaging assay (Thermo Fisher Scientific). Following nuclear counterstaining with DAPI (Life Technologies), the TUNEL labelled slides were imaged with an IX81 inverted fluorescent microscope (Olympus) and a Pike F032B camera (ALLIED Vision), using NIS-Elements AR software, and processed using ImageJ (NIH). Four representative images per condition were then analyzed using the previously developed automatic TUNEL cell counter plugin for ImageJ to quantify DAPI^+ cells and TUNEL^+ cells.
(§1) Cell viability was analyzed using a previously established protocol.^59 Cancer cell viability was measured for GFP-Luciferase labelled cancer cells using ONE-Glo luciferase substrate that was prepared according to manufacturer’s protocol (Promega). Samples were collected following 3, 7, and 21 days cycles of linsitinib treatment. Where noted, longitudinal cell viability was also assessed using luminescence, though at the cost of signal strength. Briefly, in vivo grade VivoGlo™ Luciferin (Promega) was made at a 200x stock concentration (30 mg/ml) in water, added to sample culture media at a 1:200 dilution, and scanned using a spectrophotometer (Biotek).

[2] = system: non-metastatic ES bone tumor tissues; assay: Linsitinib on non-metastatic ES bone tumor in the integrated platform with microfluidic perfusion; assay type: cell-based, human; conditions: 12 µM
Experimental: as §1, with “(Biotek). Some of the IC50 values were determined using cell viability data generated using an MTT assay (RealTime-Glo™ MT Cell Viability Assay, Promega) that were analyzed according to manufacturer’s protocol.” for “(Biotek).”
Osteocalcin (OCN), osteopontin (OPN), and lactic acid dehydrogenase (LDH) secreted levels were all measured using a similar approach. Supernatants were isolated from controls and drug treated TE-ES and equal amounts were used in each assay according to the manufacturer’s instructions. For OCN a Human Osteocalcin Quantikine^R ELISA (R&D Systems) was used, while for OPN it was a Human Osteopontin Quantikine^R ELISA (R&D Systems). LDH secretion was determined using a Lactate Dehydrogenase Assay Kit (Colorimetric; Abcam).

[3] = cited from earlier work
[4] = system: metastatic SK-N-MC cell line; assay: Linsitinib 12 µM on metastatic ES cell monolayers, luminescence viability; assay type: cell-based, human; conditions: 12 µM over 72 hours
Experimental: (§2) MTT viability assay was used to determine drug toxicity, with luminescence generated by viable cells measured at the endpoint (10^4 cells per well, mean± s.e.m., n = 3). […] In order to determine cancer cell viability, cells were lysed and treated with luciferin using a Bright-Glo™ assay, with subsequent luminescence measured (10^4 cells per well, mean± s.e.m., n = 3).
(§3) Both culture media were supplemented with 10% FBS and 1 % penicillin/streptomycin.
as §1, with “(Biotek). Some of the IC50 values were determined using cell viability data generated using an MTT assay (RealTime-Glo™ MT Cell Viability Assay, Promega) that were analyzed according to manufacturer’s protocol.” for “(Biotek).”

ES cell monolayers = assay: Linsitinib dose response in ES cell monolayers (MTT and luminescence viability); assay type: cell-based, human; conditions: 0-100 µM over 72 hours
Experimental: as §2
as §1, with “(Biotek). Some of the IC50 values were determined using cell viability data generated using an MTT assay (RealTime-Glo™ MT Cell Viability Assay, Promega) that were analyzed according to manufacturer’s protocol.” for “(Biotek).”

[5] = system: non-metastatic RD-ES cell line; assay: Linsitinib 12 µM on non-metastatic ES cell monolayers, luminescence viability; assay type: cell-based, human; conditions: 12 µM over 72 hours
Experimental: as §2, §3
as §1, with “(Biotek). Some of the IC50 values were determined using cell viability data generated using an MTT assay (RealTime-Glo™ MT Cell Viability Assay, Promega) that were analyzed according to manufacturer’s protocol.” for “(Biotek).”

[6] = 12 µM, 3-week regimen, supernatants
[7] = clinical trials of other types of cancer

C[C@]1(O)C[C@@H](c2nc(-c3ccc4ccc(-c5ccccc5)nc4c3)c3c(N)nccn32)C1 [linsitinib]
response to linsitinib concentration (luminescence viability) ([1]; 0, 1.2, 12, and 120 µM for 72 hours): dose-dependent response
apoptosis (TUNEL assay) ([1]; 12 µM): increases in apoptosis
cell viability (luminescence) ([1]; 12 µM): significant reduction in cell viability
LDH secretion (cytotoxicity) [1, 6]: spiked in both models immediately following drug administration, but significantly more so
Osteocalcin secretion [1, 6]: decreased
cancer cell population (luminescence) ([1]; 12 µM, 21-day clinical treatment regimen): initial decrease in cancer cell population in the non-metastatic model and this population appeared unable to continue expanding
drug response (luminescence) ([1]; 12 µM, after 3 days): significant drug response
osteopontin secretion ([1]; 12 µM, throughout the 21 days): significantly increased
drug response of tumors derived from sorted linsitinib-resistant cells ([1]; second 21-day 12 µM treatment regimen): significant initial drug response
drug response (luminescence), immediate exposure ([2]; 3 days, directly into the TE-ES tissue chamber): fast response to the drug
drug response (luminescence), diffused exposure ([2]; 3 days, introduced into the circulation): no response
drug response (luminescence) ([2]; 3 days, linsitinib into the reservoir): insignificant drug response
Secretion of LDH, vehicle vs linsitinib treated ([2]; 72 hours): no significant difference
progression of ES in the clinical trial ([3]; Phase II trial, patients with refractory or relapsed ES): unable to stop progression of ES
Cmax ([3]; blood plasma, patients, read-out: Cmax clinical concentration): 12 µM
atrial fibrillation [3, 7]: 3.75 - 5%
tachycardia [3, 7]: 3.75-5 % of patients
half-life ([3]; known value): approximately 5 hours
drug efficacy (luminescence viability) [4]: significant drug efficacy
IC50 (MTT viability assay) (ES cell monolayers): two orders of magnitude lower than the effective plasma concentration observed in patients
IC50 (ES cell monolayers; Homo sapiens, GFP-luciferase cells, read-out: IC50 (luminescence as a proxy for cell viability)): ~12 µM
drug efficacy (luminescence viability) [5]: significant drug efficacy
